Source: patent US5849587A, “Method of inhibiting viral replication in eukaryotic cells and of inducing apoptosis of virally-infected cells” (Cornell Research Foundation, Inc., priority 1995, dated 1998)
“Also recorded” adds a separate entry of the source.

Assays:
HIV-1 = assay: Titration assay of infectivity of virus (TCID50) produced by infected H9 cells, CEM target cells; type: cell-based; conditions: 48 hours, increasing concentrations
Procedure: 1. Dose-dependency of antiviral effect. Cells of the human T lymphocyte line H9, chronically and productively infected with the Lai (IIIb) strain of HIV-1, were harvested during logarithmic proliferation, extensively washed to remove viral antigens and infectious particles, and re-suspendedin serum-supplemented and antibiotic-containing RPMI 1640 medium at a density of 2×10^5 cells/ml. After incubation with increasing concentrations of mimosine or HK-1 for 48 hours, the cells were harvested, lysed, and used to determine the intracellular amount of the p24 antigen derived from the p55 Gag polyprotein, using a commercially available, p24-specific ELISA method (Coulter, Hialeah, Fla.); the same method was also used to quantify the extracellular level of p24 antigen that had accumulated in the supernatant during incubation with the hypusine inhibitors. In addition, titration assays were performed using CEM target cells to measure the infectivity of virus produced in the absence and presence of the hypusine inhibitors using the procedure of Prince et al., Proc. Natl. Acad. Sci. USA 85, 6944-6948 (1988), which is hereby incorporated by reference. The half-maximal tissue culture infectious doses (TCID50) of HIV-1 per ml of test sample were calculated by the Spearman-Karber method.

[1] = biological target: T1, deoxyhypusyl hydroxylase (DOHH) in human T-cell line ACH-2 (Homo sapiens, UniProt Q9BU89); assay: Deoxyhypusine-to-hypusine conversion by DOHH in ACH-2 cells; type: cell-based; conditions: for activity at 200 µM: ACH-2, 22 h, 22 hours, ACH-2 cells, FIG. 5, remaining conversion; for resumption of conversion after inhibitor removal: within 2 hours of inhibitor removal, after 200 μM, ACH-2
T1 construct: endogenous in cells; host or cells: ACH-2 (human T-cell line, subclone of the A3.01 variant of CEM)
T1 sequence (Q9BU89 1-302): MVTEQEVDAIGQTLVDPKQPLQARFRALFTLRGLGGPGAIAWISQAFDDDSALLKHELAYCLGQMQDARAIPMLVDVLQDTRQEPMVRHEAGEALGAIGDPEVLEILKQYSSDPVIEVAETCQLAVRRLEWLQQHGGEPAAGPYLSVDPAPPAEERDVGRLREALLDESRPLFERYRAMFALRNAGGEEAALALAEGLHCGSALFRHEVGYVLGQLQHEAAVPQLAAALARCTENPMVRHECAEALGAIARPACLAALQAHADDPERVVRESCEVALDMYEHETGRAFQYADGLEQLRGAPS
Procedure: DOHH Assay. The intracellular conversion of peptide-bound deoxyhypusine to peptidyl hypusine was determined after preincubation of human T lymphocyte-derived cells (i.e. ACH-2) [Clouse et al., J. Immunol. 142, 431-438 (1989), which is hereby incorporated by reference] with the hypusine inhibitors mimosine and HK-1 for 60 minutes, followed by labeling for 21 hours with ^3 H-spermidine (3.75 μCi/ml) in wells containing 3×10^6 cells suspended in 8 ml of serum-supplemented and antibiotic-containing RPMI 1640 medium. Cells were then split into two groups, one of them being harvested immediately to assess degree of DOHH inhibition, and the other harvested after transfer of the cells into inhibitor-free medium for 2 hours to measure resumption of DOHH activity. Harvesting consisted in precipitation of washed cells with 10% TCA containing 1 mM each of putrescine, spermidine, and spermine. Cellular proteins from each sample were then hydrolyzed in 6N HCl at 110° C. for 16 hours. The hydrolysate was analyzed for labeled amino acids on an amino acid analyzer by published methods [Park et al., J. Biol. Chem., 257, 7217-7222 (1982), which is hereby incorporated by reference]. The retention times of hypusine and deoxyhypusine were determined from standards. Similar studies were performed in human B-cells and human smooth muscle cells.

[2] = system: viral p24 antigen, ACH-2 cells; assay: p24 antigen levels (ELISA) in PMA-induced ACH-2 cells; type: cell-based, HIV-1; conditions: 200 μM, PMA-induced ACH-2, FIG. 10
Procedure: 142, 431-438 (1989), which is hereby incorporated by reference]. However, vigorous HIV-1 production by ACH-2 cells is induced by addition of the phorbol ester PMA [Pomerantz et al., Cell 61, 1271-1276 (1990) and Michael et al., J. Virol 65, 1291-1303 (1991), which are hereby incorporated by reference]. This system was selected for these experiments. Logarithmically growing ACH-2 cells, suspended at a concentration of 3×10^5 /ml, were incubated with the hypusine inhibitors mimosine and HK-1 at a final concentration of 200 μM. After 8 hours, viral replication was activated by addition of PMA to these cells and to untreated controls (100 ng/ml final PMA concentration). […] An aliquot of each fraction was analyzed by slot blotting, using the pXC-1 genomic ribosomal DNA probe from rat containing the 18S rRNA coding sequence [Rimarachin, Szabo et al., In Vitro 28A, 705-707 (1992), which is hereby incorporated by reference], to determine the location within the gradient of 18S rRNA, i.e., the distribution of polysomes vs. monosomes. […] Following electrophoresis, the radio-labeled PCR products were visualized by autoradiography according to routine techniques, and the band intensities quantified by densitometric analysis and expressed relative to total product per gradient. […]

Row | Structure (SMILES) | production of infectious HIV-1 particles / infectivity of virus (HIV-1) | activity at 200 µM [1] [%] | resumption of conversion after inhibitor removal [1] | viral p24 antigen in cells and supernatant [2]
1 | N[C@@H](Cn1ccc(=O)c(O)c1)C(=O)O [L-Mimosine] | dose-dependently suppressive effect | ≤ 10 | almost tripled; also recorded: recovers readily and triples within the first 2 hours of inhibitor removal | suppressive effect
2 | Cc1c(O)c(=O)ccn1C [HK-1, 1,2-dimethyl-3-hydroxypyrid-4-one] | dose-dependently suppressive effect | ≤ 10 | almost tripled; also recorded: recovers readily and triples within the first 2 hours of inhibitor removal | suppressive effect
